Like-named read-outs stand apart in the source and are kept apart here.
What was measured:
[1] = test system: rats
Text: It should be emphasized that dopamine is not capable of penetrating the blood-brain barrier when administered conventionally.

[2] = test system: rear paw of the rats; test: Randall-Selitto pain test, critical pressure (WKD) on the rear paw; format: in vivo, rat
Description: The anti-nociceptive and/or analgesic effect of promedol (trimeperidine) was investigated as a result of the endonasal administration of the combination H2O2+promedol. The experiments were conducted with (raceless) sexually mature white male rats. In a pain test, the value of the critical pressure (WKD) on the rear paw of the rats was measured. The controlled pressure on the paw was generated with an analgesimeter from the company Ugo Basile in form of the Randall-Selitto test.
Comparative results in relation to the composition of the invention include, on one hand, the intraperitoneal administration of promedol without the addition of oxygen anion radicals and, on the other hand, the intraperitoneal administration of promedol with addition of oxygen anion radicals by, on one hand, inhalation with the inhalation device described in DE 41 12 459 A1 and, on the other hand, by separate endonasal administration of a liquid hydrogen peroxide solution with a concentration of 10^−5 mole/l.
The administration according to the invention consisted of a mixture of xanthine-oxidase/xanthine and promedol in doses of 5, 2, 1, and 0.1 mg/kg bodyweight of the animals.

[3] = test system: white male rats; test: Food motivation in partially food-deprived rats, endonasal administration; format: in vivo, rat
Text: The experiments where carried out with white male rats. The animals of the control group 1 (n=13) received distilled water, the animals of the control group 2 (n=7) received a glucose solution, and the animals of the experimental group (n=9) received the composition H2O2+glucose. The duration of the observation was 17 days. During the first 11 days, the animals where controllably partially deprived of food (20 g dry mixed feed per animal). During the first week of the experiment, the initial motivation level for food was evaluated in the absence of the investigated preparation. The following parameters were investigated:
Latent period (LP) between the approach to the food and presentation of the food in seconds;
Time for consuming the food, in seconds (Tfut.);
Number of interruptions during food uptake (Ubr.)
After the second week, without changing the feed conditions, the preparation was introduced twice daily in a dose of 20 μl per animal, and all parameters where recorded. After the second week, the animals where fed ad libidum. No changes were made in the administration of the preparation and recordation of all parameters.
The experiments where conducted as in Example 1.

[4] = test system: patients with persistent or severe pain; test: Analgesic effect in patients with persistent or severe pain; format: in vivo, human
Text: The enhancement of the therapeutic efficacy of the analgesic metamizol was investigated. A total of 5 volunteers participated in the observations. […] With all patients, the observations were made after six hours following the last administration of the pain therapy.

[5] = test system: white mice; test: Soporific effect (sleep duration) after endonasal administration; format: in vivo, mouse; conditions: 60 mg/ml, n = 7
Text: Investigated was the effect of phenobarbital in an endonasal administration on sexually mature white mice. Both the sedative and the soporific effect of the endonasal administration of phenobarbital without oxygen anion radicals were compared with the administration of the […]

[6] = rats given haloperidol i/p (100 mg/kg), one-time endonasal, dopamine 0.125 mg/kg, L-arginine 10^-5 mole/l, H2O2 10^-6 mole/l
[7] = after administration of preparation, endonasal twice daily 20 μl per animal
[8] = before administration minus after administration (Table 4)
[9] = before administration of preparation

## NCCc1ccc(O)c(O)c1 [Dopamine, dopamine]
[1]; [6]
  Total spontaneous activity (Number of measurable movements): 2 ± 1.7 ^##)

## OO [H2O2, hydrogen peroxide]
[1]; [6]
  Total spontaneous activity (Number of measurable movements): 3 ± 1.9 ^##)

## O=C(CCCN1CCC(O)(c2ccc(Cl)cc2)CC1)c1ccc(F)cc1 [Haloperidol]
[1]; haloperidol i/p alone (100 mg/kg bodyweight), unharmed control 35 ± 8
  Total spontaneous activity (Number of measurable movements): 3 ± 3 ^##)

## CCC(=O)OC1(c2ccccc2)CC(C)N(C)CC1C (stereo not drawn) [Promedol, trimeperidine]
[2]; endonasal composition compared to other administration methods
  Lower dose of promedol giving prolonged and enhanced analgesic effect, endonasal form with oxygen anion radicals vs other administration methods: 10-50 times
[2]; group II, 1.0 mg/kg i/p, 30 min after injection
  Nociception (critical pressure WKD): 6.2 ± 1.9
[2]; group II, 1.0 mg/kg i/p, 90 min after injection
  Nociception (critical pressure WKD): 5.4 ± 1.4
[2]; group II, 1.0 mg/kg i/p, 150 min after injection
  Nociception (critical pressure WKD): 5.0 ± 1.2
[2]; group II, 1.0 mg/kg i/p, 210 min after injection
  Nociception (critical pressure WKD): 4.8 ± 0.9
[2]; group II, 1.0 mg/kg i/p
  Initial value of nociception (critical pressure WKD): 6.7 ± 0.9
[2]; group III, 2.0 mg/kg i/p, 30 min after injection
  Nociception (critical pressure WKD): 10.1 ± 1.1*)
[2]; group III, 2.0 mg/kg i/p, 90 min after injection
  Nociception (critical pressure WKD): 9.3 ± 1.0*)
[2]; group III, 2.0 mg/kg i/p, 150 min after injection
  Nociception (critical pressure WKD): 8.0 ± 1.1
[2]; group III, 2.0 mg/kg i/p, 210 min after injection
  Nociception (critical pressure WKD): 7.5 ± 0.9
[2]; group III, 2.0 mg/kg i/p
  Initial value of nociception (critical pressure WKD): 7.8 ± 1.6
[2]; group IV, 5.0 mg/kg i/p, 30 min after injection
  Nociception (critical pressure WKD): 11.0 ± 1.0**)
[2]; group IV, 5.0 mg/kg i/p, 90 min after injection
  Nociception (critical pressure WKD): 9.8 ± 1.3**)
[2]; group IV, 5.0 mg/kg i/p, 150 min after injection
  Nociception (critical pressure WKD): 8.3 ± 1.7*)
[2]; group IV, 5.0 mg/kg i/p, 210 min after injection
  Nociception (critical pressure WKD): 6.7 ± 1.0
[2]; group IV, 5.0 mg/kg i/p
  Initial value of nociception (critical pressure WKD): 6.4 ± 0.7
[2]; group V, 1.0 mg/kg i/p + O2- inhalation, 30 min
  Nociception (critical pressure WKD): 8.1 ± 3.6*)
[2]; group V, 1.0 mg/kg i/p + O2- inhalation, 90 min
  Nociception (critical pressure WKD): 8.1 ± 2.3**)
[2]; group V, 1.0 mg/kg i/p + O2- inhalation, 150 min
  Nociception (critical pressure WKD): 9.6 ± 5.0**)
[2]; group V, 1.0 mg/kg i/p + O2- inhalation, 210 min
  Nociception (critical pressure WKD): 5.8 ± 2.3
[2]; group V, 1.0 mg/kg i/p + O2- inhalation
  Initial value of nociception (critical pressure WKD): 6.9 ± 1.6
[2]; group VI, 1.0 mg/kg i/p + separate endonasal H2O2-administration, 30 min
  Nociception (critical pressure WKD): 8.4 ± 2.8*)
[2]; group VI, 1.0 mg/kg i/p + separate endonasal H2O2-administration, 90 min
  Nociception (critical pressure WKD): 8.7 ± 2.0**)
[2]; group VI, 1.0 mg/kg i/p + separate endonasal H2O2-administration, 150 min
  Nociception (critical pressure WKD): 8.6 ± 2.7**)
[2]; group VI, 1.0 mg/kg i/p + separate endonasal H2O2-administration, 210 min
  Nociception (critical pressure WKD): 7.3 ± 2.2
[2]; group VI, 1.0 mg/kg i/p + separate endonasal H2O2-administration
  Initial value of nociception (critical pressure WKD): 7.1 ± 1.8

## N[C@@H](CCC(=O)O)C(=O)O [glutamic acid]
[3]; [7]
  LP, latent period between approach to the food and presentation of the food: 36.3 ± 4.1 s
  Tfut., time for consuming the food: 491.2 ± 9.4 s
[3]; [8]
  Change in LP: 33.3 ± 13.1 s
  Change in Tfut.: -77.2 ± 26.6 s
  Change in Ubr.: 0.4 ± 0.6 s
[3]; [9]
  LP, latent period between approach to the food and presentation of the food: 69.9 ± 15.9 s
  Tfut., time for consuming the food: 414.0 ± 30.6 s

## Cc1c(N(C)CS(=O)(=O)O)c(=O)n(-c2ccccc2)n1C [metamizol]
[4]; endonasally, dose of 10 mg, without addition of oxygen anion radicals
  Analgesic efficacy in all patients: not effective
[4]; per os, dose of 500 mg
  Analgesic efficacy in all patients: not effective

## CCC1(c2ccccc2)C(=O)NC(=O)NC1=O [phenobarbital]
[5]
  Sleep duration: 248.5 ± 22.2 min
